Here are results for 13 molecules from patent US8163724B2, “Glucocorticosteroids, processes for their preparation, pharmaceutical compositions containing them and their use in therapy” (AstraZeneca AB, priority 2007, dated 2012).

Where two headings read alike, the source gives them in different places.

The experiment addresses T1, recombinant human GR (Homo sapiens, UniProt P04150).
T1 construct: purchased Panvera/Invitrogen P2812 (kit P2893)
T1 sequence (P04150 1-777): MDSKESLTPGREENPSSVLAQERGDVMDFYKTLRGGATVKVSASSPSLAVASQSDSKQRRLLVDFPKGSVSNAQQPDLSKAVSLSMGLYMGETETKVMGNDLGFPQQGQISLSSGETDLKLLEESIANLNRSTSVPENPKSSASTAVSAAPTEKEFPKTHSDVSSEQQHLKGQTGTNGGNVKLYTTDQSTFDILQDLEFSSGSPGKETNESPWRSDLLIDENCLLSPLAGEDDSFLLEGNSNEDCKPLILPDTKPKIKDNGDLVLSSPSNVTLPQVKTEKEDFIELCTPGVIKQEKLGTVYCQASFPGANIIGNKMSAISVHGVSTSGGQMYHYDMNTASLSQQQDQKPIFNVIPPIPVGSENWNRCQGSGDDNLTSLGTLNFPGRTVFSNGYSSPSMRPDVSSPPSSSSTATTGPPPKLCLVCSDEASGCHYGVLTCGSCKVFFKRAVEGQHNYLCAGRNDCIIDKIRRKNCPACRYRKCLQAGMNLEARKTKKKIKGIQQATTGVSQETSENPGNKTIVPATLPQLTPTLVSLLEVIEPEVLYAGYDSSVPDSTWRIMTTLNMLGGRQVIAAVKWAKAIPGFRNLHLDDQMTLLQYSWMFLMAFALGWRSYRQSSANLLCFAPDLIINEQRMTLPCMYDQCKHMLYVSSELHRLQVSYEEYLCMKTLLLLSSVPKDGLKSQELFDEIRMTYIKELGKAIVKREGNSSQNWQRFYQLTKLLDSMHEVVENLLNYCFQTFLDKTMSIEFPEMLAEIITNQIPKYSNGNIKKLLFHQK
The experiment is described as follows: Human Glucocorticoid Receptor (GR) Assay (fluorescence polarization, Panvera/Invitrogen kit). In kind it is binding. Here is the method: Human Glucocorticoid Receptor (GR) Assay
The assay is based on a commercial kit from Panvera/Invitrogen (Part number P2893). The assay technology is fluorescence polarization. […] The GR and Stabilizing Peptide reagents are stored at −70° C. while the GS Red is stored at −20° C. Also included in the kit are 1M DTT (Panvera, Part number P2325, stored at −20° C.) and GR Screening buffer 10× (Panvera, Part number P2814, stored at −70° C. initially but once thawed stored at room temperature). Avoid repeated freeze/thaws for all reagents. The GR Screening buffer 10× comprises 100 mM potassium phosphate, 200 mM sodium molybdate, 1 mM EDTA and 20% DMSO.
0% control was 100% DMSO and 100% control was 10 μM Dexamethasone. Background solution (8 μL; assay buffer 10×, Stabilizing Peptide, DTT and ice cold MQ water) was added to the background wells. GS Red solution (7 μL; assay buffer 10×, Stabilizing Peptide, DTT, GS Red and ice cold water) was added to all wells except background wells. GR solution (7 μL; assay buffer 10×, Stabilizing Peptide, DTT, GR and ice cold water) was added to all wells. The plate was sealed and incubated in a dark at room temperature for 2 hours.

[1] abbreviates: fluorescence polarization, GS Red tracer, 2 hours at room temperature, 100% control 10 μM Dexamethasone, read-out: Inhibition of GR binding, IC50.

Regarding `CCC(=O)O[C@]1(C(=O)SCC#N)CC[C@H]2[C@@H]3C[C@H](C)C4=Cc5c(cnn5-c5ccc(F)cc5)C[C@]4(C)[C@H]3[C@@H](O)C[C@@]21C` [Example 213, (1R,3aS,3bS,5S,10aR,10bS,11S,12aS)-1-{[(Cyanomethyl)sulfanyl]carbonyl}-7-(4-fluorophenyl)-11-hydroxy-5,10a,12a-trimethyl-1,2,3,3a,3b,4,5,7,10,10a,10b,11,12,12a-tetradecahydrocyclopenta[5,6]naphtho[1,2-f]indazol-1-yl propanoate], the IC50 under setting [1] turned out to be 11 nM.

With `C[C@]12Cc3cnn(-c4ccc(F)cc4)c3C=C1CC[C@@H]1[C@@H]2[C@@H](O)C[C@@]2(C)[C@H]1CC[C@]2(OC(=O)c1ccoc1)C(=O)SCC#N` [Example 50, (1R,3aS,3bS,10aR,10bS,11S,12aS)-1-{[(Cyanomethyl)thio]carbonyl}-7-(4-fluoro-phenyl)-11-hydroxy-10a,12a-dimethyl-1,2,3,3a,3b,4,5,7,10,10a,10b,11,12,12a-tetradecahydrocyclopenta[5,6]naphtho[1,2-f]indazol-1-yl furan-3-carboxylate], the IC50 under setting [1] came to 5.8 nM.

Take `C[C@]12Cc3cnn(-c4ccc(F)cc4)c3C=C1CC[C@H]1[C@@H]3CC[C@](OC(=O)c4ccco4)(C(=O)SCF)[C@@]3(C)C[C@H](O)[C@@]12F` [Example 194, (1R,3aS,3bS,10aS,10bR,11S,12aS)-1-{[(Fluoromethyl)sulfanyl]carbonyl}-10b-fluoro-7-(4-fluorophenyl)-11-hydroxy-10a,12a-dimethyl-1,2,3,3a,3b,4,5,7,10,10a,10b,11,12,12a-tetradecahydrocyclopenta[5,6]naphtho[1,2-f]indazol-1-yl furan-2-carboxylate]: the IC50 under setting [1] worked out at 2.3 nM.

`C[C@]12Cc3cnn(-c4ccc(F)cc4)c3C=C1CC[C@@H]1[C@@H]2[C@@H](O)C[C@@]2(C)[C@H]1CC[C@]2(OC(=O)CF)C(=O)SCC#N` [Example 27, (1R,3aS,3bS,10aR,10bS,1,1S,12aS)-1-{[(Cyanomethyl)thio]carbonyl}-7-(4-fluoro-phenyl)-11-hydroxy-10a,12a-dimethyl-1,2,3,3a,3b,4,5,7,10,10a,10b,11,12,12a-tetradecahydrocyclopenta[5,6]naphtho[1,2-f]indazol-1-yl fluoroacetate]: the concentration for half-maximal inhibition (IC50) was 3 nM.

With `COCC(=O)O[C@]1(C(=O)SCC#N)CC[C@H]2[C@@H]3CCC4=Cc5c(cnn5-c5ccc(F)nc5)C[C@]4(C)[C@H]3[C@@H](O)C[C@@]21C` [Example 156, (1R,3aS,3bS,10aR,10bS,11S,12aS)-1-{[(Cyanomethyl)sulfanyl]carbonyl}-7-(6-fluoropyridin-3-yl)-11-hydroxy-10a,12a-dimethyl-1,2,3,3a,3b,4,5,7,10,10a,10b,11,12,12a-tetradecahydrocyclopenta[5,6]naphtho[1,2-f]indazol-1-yl methoxyacetate], under setting [1], the half-maximal inhibitory concentration (IC50) worked out at 1.3 nM.

For `CCC(=O)O[C@]1(C(=O)SCCCO)CC[C@H]2[C@@H]3CCC4=Cc5c(cnn5-c5ccc(F)cc5)C[C@]4(C)[C@H]3[C@@H](O)C[C@@]21C` [Example 24, (1R,3aS,3bS,10aR,10bS,11S,12aS)-7-(4-Fluorophenyl)-11-hydroxy-1-{[(3-hydroxy-propyl)thio]carbonyl}-10a,12a-dimethyl-1,2,3,3a,3b,4,5,7,10,10a,10b,11,12,12a-tetradecahydrocyclopenta[5,6]naphtho[1,2-f]indazol-1-yl propanoate], the IC50 under setting [1] is 5.1 nM.

As to `C[C@]12Cc3cnn(-c4ccc(F)cc4)c3C=C1CC[C@@H]1[C@@H]2[C@@H](O)C[C@@]2(C)[C@H]1CC[C@]2(OC(=O)C1CC1)C(=O)SCC#N` [Example 35, (1R,3aS,3bS,10aR,10bS,11S,12aS)-1-{[(Cyanomethyl)thio]carbonyl}-7-(4-fluoro-Phenyl)-11-hydroxy-10a,12a-dimethyl-1,2,3,3a,3b,4,5,7,10,10a,10b,11,12,12a-tetradecahydrocyclopenta[5,6]naphtho[1,2-f]indazol-1-yl cyclopropanecarboxylate], under setting [1], the IC50 turned out to be 5 nM.

Consider `CNC(=O)[C@@]1(O)CC[C@H]2[C@@H]3CCC4=Cc5c(cnn5-c5ccc(F)cc5)C[C@]4(C)[C@H]3[C@@H](O)C[C@@]21C` [Example 70, (1R,3aS,3bS,10aR,10bS,11S,12aS)-7-(4-Fluorophenyl)-1,11-dihydroxy-N,10a,12a-trimethyl-1,2,3,3a,3b,4,5,7,10,10a,10b,11,12,12a-tetradecahydrocyclopenta[5,6]naphtho[1,2-f]indazole-1-carboxamide], for which the IC50 under setting [1] turned out to be 3.8 nM.

For the molecule `C=Cc1cccc(-n2ncc3c2C=C2CC[C@@H]4[C@H]([C@@H](O)C[C@@]5(C)[C@H]4CC[C@]5(OC(=O)c4ccco4)C(=O)SCF)[C@@]2(C)C3)c1` [Example 72, (1R,10aR,11S,12aS)-7-(3-Ethenylphenyl)-1-{[(fluoromethyl)thio]carbonyl}-11-hydroxy-10a,12a-dimethyl-1,2,3,3a,3b,4,5,7,10a,10b,11,12,12a-tetradecahydrocyclopenta[5,6]naphtho[1,2-f]indazol-1-yl furan-2-carboxylate], under setting [1], the IC50 turned out to be 17 nM.

On to `Cc1occc1C(=O)O[C@]1(C(=O)SCF)CC[C@H]2[C@@H]3CCC4=Cc5c(cnn5-c5ccc(F)cc5)C[C@]4(C)[C@H]3[C@@H](O)C[C@@]21C` [Example 54, (1R,3aS,3bS,10aR,10bS,11S,12aS)-1-{[(Fluoromethyl)thio]carbonyl}-7-(4-fluorophenyl)-11-hydroxy-10a,12a-dimethyl-1,2,3,3a,3b,4,5,7,10,10a,10b,11,12,12a-tetradecahydropcyclopenta[5,6]naphtho[1,2]-indazol-1-yl 2-methylfuran-3-carboxylate], for which the IC50 under setting [1] worked out at 7.3 nM.

Take `C[C@]12Cc3cnn(-c4ccccn4)c3C=C1CC[C@@H]1[C@@H]2[C@@H](O)C[C@@]2(C)[C@H]1CC[C@]2(OC(=O)c1ccco1)C(=O)OCC#N` [Example 105, Cyanomethyl(1R,3aS,3bS,10aR,10bS,11S,12aS)-1-[(furan-2-ylcarbonyl)oxy]-11-hydroxy-10a,12a-dimethyl-7-pyridin-2-yl-1,2,3,3a,3b,4,5,7,10,10a,10b,11,12,12a-tetradecahydrocyclopenta[5,6]naphtho[1,2-f]indazole-1-carboxylate]: the IC50 under setting [1] is 6.1 nM.

As to `COCC(=O)O[C@]1(C(=O)SCC#N)CC[C@H]2[C@@H]3CCC4=Cc5c(cnn5-c5ccc(F)cc5)C[C@]4(C)[C@H]3[C@@H](O)C[C@@]21C` [Example 30, (1R,3aS,3bS,10aR,10bS,11S,12aS)-1-{[(Cyanomethyl)thio]carbonyl}-7-(4-fluoro-phenyl)-11-hydroxy-10a,12a-dimethyl-1,2,3,3a,3b,4,5,7,10,10a,10b,11,12,12a-tetradecahydrocyclopenta[5,6]naphtho[1,2-f]indazol-1-yl methoxyacetate], the IC50 under setting [1] turned out to be 3.1 nM.

As to `CSCOC(=O)[C@@]1(O)CC[C@H]2[C@@H]3CCC4=Cc5c(cnn5-c5ccc(F)cc5)C[C@]4(C)[C@H]3[C@@H](O)C[C@@]21C` [Example 117, (Methylsulfanyl)methyl(1R,3aS,3bS,10aR,10bS,11S,12aS)-7-(4-fluorophenyl)-1,11-dihydroxy-10a,12a-dimethyl-1,2,3,3a,3b,4,5,7,10,10a,10b,11,12,12a-tetradecahydrocyclopenta[5,6]naphtho[1,2-f]indazole-1-carboxylate], under setting [1], the 50% inhibitory concentration (IC50) was found to be 7 nM.
